Patent US20140274981A1, “PHARMACEUTICAL COMPOSITION OF S-KETAMINE HYDROCHLORIDE” (JANSSEN PHARMACEUTICA NV, priority 2013, published 2014)

Assays:
[1] = system: C. albicans; test: Full AET challenge test; details: original spike 10^5-10^6 CFU/ml, after 28 days
[2] = system: S. aureus; test: Full AET challenge test; details: original spike 10^5-10^6 CFU/ml, after 28 days
[3] = system: M. luteus; test: Full AET challenge test; details: original spike 10^5-10^6 CFU/ml, after 28 days
[4] = system: A. brasiliensis; test: Full AET challenge test; details: original spike 10^5-10^6 CFU/ml, 28 days at room temperature
[5] = system: P. aeruginosa; test: Full AET challenge test; details: original spike 10^5-10^6 CFU/ml, after 28 days
[6] = system: S. haemolyticus; test: Microbial challenge test (Example 1); details: original spike 10^5-10^6 CFU/ml
[7] = system: E. coli; test: Full AET challenge test; details: original spike 10^5-10^6 CFU/ml, after 28 days

## CN[C@]1(c2ccccc2Cl)CCCCC1=O.Cl [S-ketamine hydrochloride, (S)-2-(2-chlorophenyl)-2-(methylamino)cyclohexanone hydrochloride]
[1]
  Effect on the original spike (in words): strong antimicrobial properties
[2]
  Effect on the original spike (in words): strong antimicrobial properties
[3]
  Effect on the original spike (in words): strong antimicrobial properties
[4]
  Effect on the original spike (in words): some inhibitory activity
[5]
  Effect on the original spike (in words): strong antimicrobial properties
[6]
  Effect on the original spike (in words): strong antimicrobial properties
[7]
  Effect on the original spike (in words): strong antimicrobial properties
